# Tested on: not given
# Assay: not given
row,melting point [°C],SMILES
1,177,"CC(C(=O)NN=C1CCCCC1)c1ccc(-c2ccccc2)c(F)c1 (centres unmarked) [Compound 5l, N′-Cyclohexylidene-2-(2-fluoro-[1,1′-biphenyl]-4-yl)propanehydrazide]"
2,160,"C/C(=N\NC(=O)C(C)c1ccc(-c2ccccc2)c(F)c1)C1CC1 (centres unmarked) [Compound 5j, (E)-N′-(1-Cyclopropylethylidene)-2-(2-fluoro-[1,1′-biphenyl]-4-yl)propanehydrazide]"
3,192,"COc1ccc(/C(C)=N/NC(=O)C(C)c2ccc(-c3ccccc3)c(F)c2)cc1 (centres unmarked) [Compound 5n, (E)-2-(2-Fluoro-[1,1′-biphenyl]-4-yl)-N′-(1-(4-methoxyphenyl)ethylidene)propanehydrazide]"
4,198,"COc1ccccc1/C(C)=N/NC(=O)C(C)c1ccc(-c2ccccc2)c(F)c1 (centres unmarked) [Compound 5m, (E)-2-(2-Fluoro-[1,1′-biphenyl]-4-yl)-N′-(1-(2-methoxyphenyl)ethylidene)propanehydrazide]"
5,175,"C/C(=N\NC(=O)C(C)c1ccc(-c2ccccc2)c(F)c1)c1ccc([N+](=O)[O-])cc1 (centres unmarked) [Compound 5b, (E)-2-(2-Fluoro-[1,1′-biphenyl]-4-yl)-N′-(1-(4-nitrophenyl)ethylidene)propanehydrazide]"
6,183,"CCC/C(=N\NC(=O)C(C)c1ccc(-c2ccccc2)c(F)c1)c1ccccc1 (centres unmarked) [Compound 5k, (E)-2-(2-Fluoro-[1,1′-biphenyl]-4-yl)-N′-(1-phenylbutylidene)propanehydrazide]"
7,152,"C/C(=N\NC(=O)C(C)c1ccc(-c2ccccc2)c(F)c1)c1ccc(O)cc1 (centres unmarked) [Compound 5a, (E)-2-(2-Fluoro-[1,1′-biphenyl]-4-yl)-N′-(1-(4-hydroxyphenyl)ethylidene)propanehydrazide]"
8,187,"COc1ccc2c(c1)CCC/C2=N\NC(=O)C(C)c1ccc(-c2ccccc2)c(F)c1 (centres unmarked) [Compound 5c, (E)-2-(2-Fluoro-[1,1′-biphenyl]-4-yl)-N′-(6-methoxy-3,4-dihydronaphthalen-1(2H) -ylidene)propanehydrazide]"
9,181,"C/C(=N\NC(=O)C(C)c1ccc(-c2ccccc2)c(F)c1)c1ccccc1 (centres unmarked) [Compound 5f, (E)-2-(2-Fluoro-[1,1′-biphenyl]-4-yl)-N′-(1-phenylethylidene)propanehydrazide]"
10,177,"CC(C)/C(=N\NC(=O)C(C)c1ccc(-c2ccccc2)c(F)c1)c1ccccc1 (centres unmarked) [Compound 5h, (E)-2-(2-Fluoro-[1,1′-biphenyl]-4-yl)-N′-(2-methyl-1-phenylpropylidene)propanehydrazide]"
11,165,"CCCC/C(=N\NC(=O)C(C)c1ccc(-c2ccccc2)c(F)c1)c1ccccc1 (centres unmarked) [Compound 5i, (E)-2-(2-Fluoro-[1,1′-biphenyl]-4-yl)-N′-(1-phenylpentylidene)propanehydrazide]"
12,179,"CC/C(=N\NC(=O)C(C)c1ccc(-c2ccccc2)c(F)c1)c1ccccc1 (centres unmarked) [Compound 5g, (E)-2-(2-Fluoro-[1,1′-biphenyl]-4-yl)-N′-(1-phenylpropylidene)propanehydrazide]"

# More lines, now with the values behind:
row,SMILES,melting point [°C]
1,"CC(C(=O)N/N=C/c1ccc(O)cc1O)c1ccc(-c2ccccc2)c(F)c1 (centres unmarked) [Compound 4c, (E)-N′-(2,4-Dihydroxybenzylidene)-2-(2-fluoro-[1,1′-biphenyl]-4-yl)propanehydrazide]",133 to 135
2,"COc1cccc(/C=N/NC(=O)C(C)c2ccc(-c3ccccc3)c(F)c2)c1O (centres unmarked) [Compound 4d, (E)-2-(2-Fluoro-[1,1′-biphenyl]-4-yl)-N′-(2-hydroxy-3-methoxybenzylidene)propanehydrazide]",154 to 155
3,"CC(C(=O)N/N=C/c1ccc(Br)cc1F)c1ccc(-c2ccccc2)c(F)c1 (centres unmarked) [Compound 4g, (E)-N′-(4-Bromo-2-fluorobenzylidene)-2-(2-fluoro-[1,1′-biphenyl]-4-yl)propanehydrazide]",166 to 168
4,"CC(C(=O)N/N=C/c1cccc(Br)c1)c1ccc(-c2ccccc2)c(F)c1 (centres unmarked) [Compound 4h, (E)-N′-(3-Bromobenzylidene)-2-(2-fluoro-[1,1′-biphenyl]-4-yl)propanehydrazide]",147 to 148
5,"CC(C(=O)N/N=C/c1cccc2ccccc12)c1ccc(-c2ccccc2)c(F)c1 (centres unmarked) [Compound 4n, (E)-2-(2-Fluoro-[1,1′-biphenyl]-4-yl)-N′-(naphthalen-1-ylmethylene)propanehydrazide]",168 to 170
6,"CC(C(=O)N/N=C/c1cccc([N+](=O)[O-])c1)c1ccc(-c2ccccc2)c(F)c1 (centres unmarked) [Compound 4b, (E)-2-(2-Fluoro-[1,1′-biphenyl]-4-yl)-N′-(3-nitrobenzylidene)propanehydrazide]",145 to 147
7,"CCC/C=N/NC(=O)C(C)c1ccc(-c2ccccc2)c(F)c1 (centres unmarked) [Compound 4k, (E)-N′-Butylidene-2-(2-fluoro-[1,1′-biphenyl]-4-yl)propanehydrazide]",168 to 169
8,"COc1ccccc1/C=N/NC(=O)C(C)c1ccc(-c2ccccc2)c(F)c1 (centres unmarked) [Compound 4m, (E)-2-(2-Fluoro-[1,1′-biphenyl]-4-yl)-N′-(2-methoxybenzylidene)propanehydrazide]",131 to 132
9,"CCOc1cc(/C=N/NC(=O)C(C)c2ccc(-c3ccccc3)c(F)c2)ccc1O (centres unmarked) [Compound 4j, (E)-N′-(3-Ethoxy-4-hydroxybenzylidene)-2-(2-fluoro-[1,1′-biphenyl]-4-yl)propanehydrazide]",173 to 174
10,"COc1cc(/C=N/NC(=O)C(C)c2ccc(-c3ccccc3)c(F)c2)cc(OC)c1OC (centres unmarked) [Compound 4a, (E)-2-(2-Fluoro-[1,1′-biphenyl]-4-yl)-N′-(3,4,5-trimethoxybenzylidene)propanehydrazide]",139 to 140
11,"CCCCC/C=N/NC(=O)C(C)c1ccc(-c2ccccc2)c(F)c1 (centres unmarked) [Compound 4l, (E)-2-(2-Fluoro-[1, 1′-biphenyl]-4-yl)-N′-hexylidenepropanehydrazide]",129 to 130
12,"COc1ccc(/C=N/NC(=O)C(C)c2ccc(-c3ccccc3)c(F)c2)cc1O (centres unmarked) [Compound 4f, (E)-2-(2-Fluoro-[1, 1′-biphenyl]-4-yl)-N′-(3-hydroxy-4-methoxybenzylidene)propanehydrazide]",126 to 127
13,"CC(C(=O)N/N=C/c1ccc(C(=O)O)cc1)c1ccc(-c2ccccc2)c(F)c1 (centres unmarked) [Compound 4p, (E)-4-((2-(2-(2-Fluoro-[1,1′-biphenyl]-4-yl)propanoyl)hydrazono)methyl)benzoic acid]",176 to 177
14,"CC(C(=O)NN=Cc1cc(Br)c(O)c(Br)c1)c1ccc(-c2ccccc2)c(F)c1 (centres unmarked) [Compound 4i, (E)-N′-(3,5-Dibromo-4-hydroxybenzylidene)-2-(2-fluoro-[1,1′-biphenyl]-4-yl)propane hydrazide]",161 to 162
15,"CCN(CC)c1ccc(/C=N/NC(=O)C(C)c2ccc(-c3ccccc3)c(F)c2)cc1 (centres unmarked) [Compound 4e, (E)-N′-(4-(Diethylamino)benzylidene)-2-(2-fluoro-[1,1′-biphenyl]-4-yl)propanehydrazide]",144 to 145

# Molecular target: α-Glucosidase (E.C.3.2.1.20) (Saccharomyces cerevisiae, UniProt P53341)
# Assay: In vitro α-glucosidase inhibition assay
# Type: biochemical
# Method: α-Glucosidase (E.C.3.2.1.20) enzyme inhibition assay was developed by using 0.1 M phosphate buffer (pH 6.8) at 37 °C [39, 40, 41]. The enzyme (0.2 μ/mL) was incubated in phosphate-buffered saline with different concentrations of tested compounds at 37 °C for 15 min. […] Test compounds were substituted with DMSO-d6 (7.5% final) in the control. […] The % inhibition was calculated by using the following formula:
# % Inhibition = 100 − (OD test well/OD control) × 100.
# α-Glucosidase (E.C.3.2.1.20), sequence (P53341 whole entry): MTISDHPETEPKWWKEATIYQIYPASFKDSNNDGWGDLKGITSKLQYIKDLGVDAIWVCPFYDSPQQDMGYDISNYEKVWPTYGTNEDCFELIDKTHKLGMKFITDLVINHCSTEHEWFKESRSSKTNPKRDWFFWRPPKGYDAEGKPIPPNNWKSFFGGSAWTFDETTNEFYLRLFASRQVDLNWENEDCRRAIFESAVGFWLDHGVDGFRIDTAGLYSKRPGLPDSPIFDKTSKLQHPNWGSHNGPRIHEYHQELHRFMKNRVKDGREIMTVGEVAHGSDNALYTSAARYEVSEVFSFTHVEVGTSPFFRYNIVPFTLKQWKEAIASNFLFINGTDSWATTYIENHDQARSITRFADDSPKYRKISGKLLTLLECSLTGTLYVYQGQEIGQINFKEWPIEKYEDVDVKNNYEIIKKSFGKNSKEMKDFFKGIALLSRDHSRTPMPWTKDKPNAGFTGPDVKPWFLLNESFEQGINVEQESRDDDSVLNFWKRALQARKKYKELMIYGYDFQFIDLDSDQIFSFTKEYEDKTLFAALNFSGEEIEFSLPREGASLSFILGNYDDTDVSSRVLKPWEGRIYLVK
row,α-glucosidase inhibitory activity (in words),SMILES
1,moderate-to-low activities,"C/C(=N\NC(=O)C(C)c1ccc(-c2ccccc2)c(F)c1)c1ccccc1 (centres unmarked) [Compound 5f, (E)-2-(2-Fluoro-[1,1′-biphenyl]-4-yl)-N′-(1-phenylethylidene)propanehydrazide]"
2,moderate-to-low activities,"CC/C(=N\NC(=O)C(C)c1ccc(-c2ccccc2)c(F)c1)c1ccccc1 (centres unmarked) [Compound 5g, (E)-2-(2-Fluoro-[1,1′-biphenyl]-4-yl)-N′-(1-phenylpropylidene)propanehydrazide]"

# More lines, now with the values behind:
row,SMILES,α-glucosidase inhibitory activity (in words)
1,"CC(C(=O)N/N=C/c1cccc2ccccc12)c1ccc(-c2ccccc2)c(F)c1 (centres unmarked) [Compound 4n, (E)-2-(2-Fluoro-[1,1′-biphenyl]-4-yl)-N′-(naphthalen-1-ylmethylene)propanehydrazide]",moderate-to-low activities
2,"CCC/C=N/NC(=O)C(C)c1ccc(-c2ccccc2)c(F)c1 (centres unmarked) [Compound 4k, (E)-N′-Butylidene-2-(2-fluoro-[1,1′-biphenyl]-4-yl)propanehydrazide]",moderate-to-low activities
3,"COc1ccc(/C=N/NC(=O)C(C)c2ccc(-c3ccccc3)c(F)c2)cc1O (centres unmarked) [Compound 4f, (E)-2-(2-Fluoro-[1, 1′-biphenyl]-4-yl)-N′-(3-hydroxy-4-methoxybenzylidene)propanehydrazide]",moderate-to-low activities

# Reference: PMC9231348, “Bio-Oriented Synthesis of Novel (S)-Flurbiprofen Clubbed Hydrazone Schiff’s Bases for Diabetic Management: In Vitro and In Silico Studies” (Pharmaceuticals, 2022)
